Experiment [1] addresses T1, beta-catenin-B-cell lymphoma 9 protein complex (Homo sapiens, UniProt P35222).
T1 sequence (P35222 whole entry): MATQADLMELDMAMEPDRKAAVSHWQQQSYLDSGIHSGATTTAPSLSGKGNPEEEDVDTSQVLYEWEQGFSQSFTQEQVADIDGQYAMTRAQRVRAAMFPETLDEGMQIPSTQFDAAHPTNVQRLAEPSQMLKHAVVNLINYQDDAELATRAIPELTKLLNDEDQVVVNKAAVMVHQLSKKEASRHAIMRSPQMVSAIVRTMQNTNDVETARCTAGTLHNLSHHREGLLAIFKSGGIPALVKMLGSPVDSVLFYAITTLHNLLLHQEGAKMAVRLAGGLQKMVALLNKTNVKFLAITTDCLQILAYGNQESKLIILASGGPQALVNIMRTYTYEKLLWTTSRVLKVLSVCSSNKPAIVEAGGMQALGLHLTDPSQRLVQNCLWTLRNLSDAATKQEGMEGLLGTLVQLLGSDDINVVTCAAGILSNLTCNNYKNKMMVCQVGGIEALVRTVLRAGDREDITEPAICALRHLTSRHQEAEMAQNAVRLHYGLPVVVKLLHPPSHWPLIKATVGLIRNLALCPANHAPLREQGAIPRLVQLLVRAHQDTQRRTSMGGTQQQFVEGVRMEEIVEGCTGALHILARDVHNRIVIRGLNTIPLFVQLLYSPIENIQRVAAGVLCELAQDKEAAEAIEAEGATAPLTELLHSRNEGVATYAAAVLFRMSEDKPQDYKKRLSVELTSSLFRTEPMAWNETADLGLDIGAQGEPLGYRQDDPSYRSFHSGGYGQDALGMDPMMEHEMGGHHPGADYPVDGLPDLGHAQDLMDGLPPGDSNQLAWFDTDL
T1 sequence (O00512 whole entry): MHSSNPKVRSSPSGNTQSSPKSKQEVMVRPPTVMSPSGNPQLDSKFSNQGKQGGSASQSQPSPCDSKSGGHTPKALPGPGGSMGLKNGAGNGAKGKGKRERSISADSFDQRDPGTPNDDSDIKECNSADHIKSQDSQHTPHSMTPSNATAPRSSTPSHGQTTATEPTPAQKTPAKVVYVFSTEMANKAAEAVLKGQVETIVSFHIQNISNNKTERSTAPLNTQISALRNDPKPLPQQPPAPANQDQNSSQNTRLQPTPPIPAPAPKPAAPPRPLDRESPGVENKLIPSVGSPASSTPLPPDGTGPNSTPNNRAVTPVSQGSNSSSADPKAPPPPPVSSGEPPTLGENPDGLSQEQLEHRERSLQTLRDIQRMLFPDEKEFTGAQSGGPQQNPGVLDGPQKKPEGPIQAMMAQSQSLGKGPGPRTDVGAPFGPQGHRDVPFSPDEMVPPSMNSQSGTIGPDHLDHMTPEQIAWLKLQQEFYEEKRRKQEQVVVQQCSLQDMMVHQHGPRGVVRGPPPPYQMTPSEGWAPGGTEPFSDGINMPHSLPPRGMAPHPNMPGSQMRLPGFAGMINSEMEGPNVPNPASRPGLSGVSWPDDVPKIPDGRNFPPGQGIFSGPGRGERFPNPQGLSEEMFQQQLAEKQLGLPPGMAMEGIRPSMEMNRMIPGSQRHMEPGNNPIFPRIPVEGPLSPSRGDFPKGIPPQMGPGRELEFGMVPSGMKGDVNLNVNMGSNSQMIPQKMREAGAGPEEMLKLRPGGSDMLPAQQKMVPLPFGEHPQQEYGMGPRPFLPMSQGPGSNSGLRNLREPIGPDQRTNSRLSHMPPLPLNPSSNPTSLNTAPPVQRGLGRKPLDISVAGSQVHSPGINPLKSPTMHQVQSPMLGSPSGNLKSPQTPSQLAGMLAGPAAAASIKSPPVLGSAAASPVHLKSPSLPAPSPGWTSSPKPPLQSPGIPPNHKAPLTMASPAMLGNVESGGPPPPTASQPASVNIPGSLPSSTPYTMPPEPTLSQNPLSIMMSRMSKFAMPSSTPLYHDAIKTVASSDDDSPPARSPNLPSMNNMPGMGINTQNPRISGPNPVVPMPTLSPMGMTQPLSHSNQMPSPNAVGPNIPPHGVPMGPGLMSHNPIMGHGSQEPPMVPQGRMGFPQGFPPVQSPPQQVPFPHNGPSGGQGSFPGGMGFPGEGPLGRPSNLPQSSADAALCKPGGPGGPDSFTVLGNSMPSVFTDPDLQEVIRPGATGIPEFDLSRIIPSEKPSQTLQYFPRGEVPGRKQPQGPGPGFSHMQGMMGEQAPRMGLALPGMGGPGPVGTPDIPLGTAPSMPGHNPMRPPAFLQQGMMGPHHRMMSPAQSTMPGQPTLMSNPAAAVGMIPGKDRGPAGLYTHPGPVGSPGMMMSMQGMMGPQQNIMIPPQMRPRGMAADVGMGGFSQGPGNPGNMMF
The experiment can be described thus: Inhibition of full length beta-catenin (1 to 781 residues) (unknown origin) expressed in Escherichia coli BL21 (DE3)/N-terminal biotinylated human BCL9 HD2 (350 to 375 residues) protein-protein interaction assessed as inhibition constant incubated for 1 hr by Alphascreen assay.

In experiment [2] the target is T1, beta-catenin-B-cell lymphoma 9 protein complex. The experiment is described as follows: Inhibition of full length beta-catenin (1 to 781 residues) (unknown origin) expressed in Escherichia coli BL21 (DE3)/N-terminal biotinylated human BCL9 HD2 (350 to 375 residues) protein-protein interaction incubated for 1 hr by Alphascreen assay.

Molecules are shown by their SMILES. Some results are limits rather than exact numbers.

`CC(C)(C)C1CCC(c2cc(C(=O)N3CCC(Oc4cc(N5CCNCC5)ccc4C#N)CC3)ccc2O[C@H]2CCNC2)CC1` (mixture of isomers; 36): in experiment [1], the inhibition constant (Ki) stood at 1.2 µM. Moreover, in experiment [2], the IC50 was 1.5 µM.
In the case of `NCc1cn(Cc2cc(F)cc(OC3CCN(C(=O)c4ccc(O[C@H]5CCNC5)c(C5CCCCC5)c4)CC3)c2)nn1`, the Ki in experiment [1] is greater than 84 µM. In experiment [2], the IC50 was greater than 100 µM.
`CC(C)(C)C1CCC(c2cc(C(=O)N3CCC(Oc4cccc(N5CCNCC5)c4)CC3)ccc2O[C@H]2CCNC2)CC1` (mixture of isomers): in experiment [1], the inhibition constant (Ki) turned out to be 17 µM. The same molecule came in with an IC50 in experiment [2] of 20 µM.
In the same order, the values of `CN(C)C(=O)c1ccc(N2CCNCC2)cc1OC1CCN(C(=O)c2ccc(O[C@H]3CCNC3)c(C3CCC(C(C)(C)C)CC3)c2)CC1` (mixture of isomers) are greater than 84 µM and greater than 100 µM.
On the same counts, the results for `COC(=O)c1ccc(N2CCNCC2)cc1OC1CCN(C(=O)c2ccc(O[C@H]3CCNC3)c(C3CCC(C(C)(C)C)CC3)c2)CC1` (mixture of isomers) are 14 µM and 17 µM.
On the same counts, the results for `NCCC(=O)NCc1cc(F)cc(OC2CCN(C(=O)c3ccc(O[C@H]4CCNC4)c(C4CCCCC4)c3)CC2)c1` are greater than 84 µM and greater than 100 µM.
As for `CC(C)(C)C1CCC(c2cc(C(=O)N3CCC(Oc4cc(F)cc(N5CCNCC5)c4)CC3)ccc2O[C@H]2CCNC2)CC1` (mixture of isomers), the Ki in experiment [1] was determined as 3.2 µM. In addition, the half-maximal inhibitory concentration (IC50) in experiment [2] was determined as 3.6 µM.
On the same counts, the results for `O=C(c1ccc(O[C@H]2CCNC2)c(C2CCCCC2)c1)N1CCC(Oc2cc(F)cc(N3CCNCC3=O)c2)CC1` are greater than 84 µM and greater than 100 µM.
For `O=C(c1ccc(O[C@H]2CCNC2)c(-c2ccccc2)c1)N1CCC(Oc2cc(F)cc(N3CCNCC3)c2)CC1`, the inhibition constant Ki in experiment [1] is 42 µM. In experiment [2], this molecule returned a half-maximal inhibitory concentration (IC50) of 47 µM.
On the same counts, the results for `O=C(c1ccc(O[C@@H]2CCNC2)c(C2CCCCC2)c1)N1CCC(Oc2cc(F)cc(N3CCNCC3)c2)CC1` are 52 µM and 64 µM.
Take `O=C(c1ccc(OC2CCNCC2)c(C2CCCCC2)c1)N1CCC(Oc2cc(F)cc(N3CCNCC3)c2)CC1`: the inhibitory constant (Ki) in experiment [1] is greater than 84 µM. The molecule further showed a half-maximal inhibitory concentration (IC50) in experiment [2] greater than 100 µM.
On the same counts, the results for `O=C(c1ccc(O[C@H]2CCNC2)c(C2CCC(C(F)(F)F)CC2)c1)N1CCC(Oc2cc(F)cc(N3CCNCC3)c2)CC1` (mixture of isomers) are 13 µM and 20 µM.
On the same counts, the results for `CC(C)(C)C1CCC(c2cc(C(=O)N3CCC(Oc4cc(N5CCNCC5)ccc4C(=O)O)CC3)ccc2O[C@H]2CCNC2)CC1` (stereo partly specified) are greater than 84 µM and greater than 100 µM.
In the same order, the values of `O=C(c1ccc(O[C@H]2CCNC2)c(C2CCN(C(=O)C3CC3)CC2)c1)N1CCC(Oc2cc(F)cc(N3CCNCC3)c2)CC1` are 35 µM and 39 µM.
As to `CC(C)(C)c1ccc(-c2cc(C(=O)N3CCC(Oc4cc(F)cc(N5CCNCC5)c4)CC3)ccc2O[C@H]2CCNC2)cc1`, the Ki in experiment [1] worked out at 10 µM. The molecule also had an IC50 in experiment [2] of 11 µM.
As to `O=C(c1ccc(O[C@H]2CCNC2)c(-c2ccc3[nH]ncc3c2)c1)N1CCC(Oc2cc(F)cc(N3CCNCC3)c2)CC1`, the Ki in experiment [1] came out at 7.9 µM. Also, the midpoint of inhibition in experiment [2], the IC50, lay at 8.8 µM.
Turning to `CC(C)(C)C1CCC(c2cc(C(=O)N3CCC(Oc4cc(Cl)cc(N5CCNCC5)c4)CC3)ccc2O[C@H]2CCNC2)CC1` (mixture of isomers), the inhibition constant Ki in experiment [1] turned out to be 3.6 µM. Also, the half-inhibitory concentration (IC50) in experiment [2] is 4.3 µM.
In the same order, the values of `CC(O)C(=O)N1CCC(c2cc(C(=O)N3CCC(Oc4cc(F)cc(N5CCNCC5)c4)CC3)ccc2O[C@H]2CCNC2)CC1` (stereo partly specified) are 34 µM and 37 µM.
For `CNC(=O)c1ccc(N2CCNCC2)cc1OC1CCN(C(=O)c2ccc(O[C@H]3CCNC3)c(C3CCC(C(C)(C)C)CC3)c2)CC1` (mixture of isomers), the inhibitory constant (Ki) in experiment [1] amounted to 38 µM. The molecule further returned a concentration for half-maximal inhibition (IC50) in experiment [2] of 47 µM.
For `O=C(c1cc(F)cc(N2CCNCC2)c1)N1CCN(C(=O)c2ccc(O[C@@H]3CCNC3)c(C3CCCCC3)c2)CC1`, in experiment [1], the Ki is 50 µM. Moreover, in experiment [2], the IC50 is no less than 60 µM.
For the molecule `CC(C)C(=O)N1CCC(c2cc(C(=O)N3CCC(Oc4cc(F)cc(N5CCNCC5)c4)CC3)ccc2O[C@H]2CCNC2)CC1`, in experiment [1], the inhibitory constant (Ki) turned out to be 31 µM. Further, inhibition in experiment [2] was half-maximal at 35 µM (IC50).
On to `O=C(c1ccc(O[C@H]2CCNC2)c(-c2ccc3ccccc3c2)c1)N1CCC(Oc2cc(F)cc(N3CCNCC3)c2)CC1`, for which, in experiment [1], the Ki is 4.1 µM. In experiment [2], this molecule displayed an IC50 of 4.6 µM.
In the same order, the values of `CC(C)(C)C1CCC(c2cc(C(=O)N3CCC(Oc4cc(C#N)cc(N5CCNCC5)c4)CC3)ccc2O[C@H]2CCNC2)CC1` (mixture of isomers) are 4.4 µM and 5.2 µM.
For `O=C(c1ccc(O[C@H]2CCNC2)c(C2CCCCC2)c1)N1CCC(Oc2cc(F)cc(N3CCC4(CC3)CNC4)c2)CC1`, the Ki in experiment [1] is greater than 84 µM. The molecule further registered an IC50 in experiment [2] greater than 100 µM.
As to `NCCC(=O)Nc1cc(F)cc(OC2CCN(C(=O)c3ccc(O[C@H]4CCNC4)c(C4CCCCC4)c3)CC2)c1`, the Ki in experiment [1] is 62 µM. Moreover, in experiment [2], the IC50 is 69 µM.
On the same counts, the results for `O=C(c1ccc(O[C@H]2CCNC2)c(-c2ccc3nc[nH]c3c2)c1)N1CCC(Oc2cc(F)cc(N3CCNCC3)c2)CC1` are 43 µM and 48 µM.
In the same order, the values of `O=C(c1ccc(O[C@H]2CCNC2)c(-c2ccc3ccsc3c2)c1)N1CCC(Oc2cc(F)cc(N3CCNCC3)c2)CC1` are 4 µM and 4.5 µM.
In the same order, the values of `CN(C)Cc1cn(Cc2cc(F)cc(OC3CCN(C(=O)c4ccc(O[C@H]5CCNC5)c(C5CCCCC5)c4)CC3)c2)nn1` are 72 µM and 80 µM.
For `CC(C)(CN)C(=O)NCc1cc(F)cc(OC2CCN(C(=O)c3ccc(O[C@H]4CCNC4)c(C4CCCCC4)c3)CC2)c1`, the Ki in experiment [1] is greater than 84 µM. Moreover, the 50% inhibitory concentration (IC50) in experiment [2] is greater than 100 µM.
In the same order, the values of `CC(C)(C)C(=O)N1CCC(c2cc(C(=O)N3CCC(Oc4cc(F)cc(N5CCNCC5)c4)CC3)ccc2O[C@H]2CCNC2)CC1` are greater than 84 µM and greater than 100 µM.
For `CC(C)(C)C1CCC(c2cc(C(=O)N3CCC(Oc4cc(N5CCNCC5)ccc4C(N)=O)CC3)ccc2O[C@H]2CCNC2)CC1` (mixture of isomers), the inhibition constant Ki in experiment [1] came out at 16 µM. 20 µM corresponded to half-maximal inhibition in experiment [2] (IC50).
On to `CC(C)(C)C1CCC(c2cc(C(=O)N3CCC(Oc4cc(N5CCNCC5)ccc4Cl)CC3)ccc2O[C@H]2CCNC2)CC1` (mixture of isomers), for which the Ki in experiment [1] came to 2.2 µM. For the same molecule, in experiment [2], the 50% inhibitory concentration (IC50) turned out to be 2.7 µM.
For the molecule `O=C(c1ccc(O[C@H]2CCNC2)c(C2CCOCC2)c1)N1CCC(Oc2cc(F)cc(N3CCNCC3)c2)CC1`, the Ki in experiment [1] was greater than 84 µM. Further, the IC50 in experiment [2] is greater than 100 µM.

The record behind these values is ChEMBL document CHEMBL5226326, “Discovery of 1-Benzoyl 4-Phenoxypiperidines as Small-Molecule Inhibitors of the β-Catenin/B-Cell Lymphoma 9 Protein-Protein Interaction” (J Med Chem, 2021).
